The values that follow come from patent US5681954A, “Piperazine derivatives” (Daiichi Pharmaceutical Co., Ltd., priority 1993, dated 1997).

Assay [1] relates to Nitrogen-induced Hypoxia Model in Mouse. The experiment in a line: Activity on Nitrogen-induced Hypoxia Model in Mouse. The format is in vivo. The note with it: 30 mg/kg, p.o., 60 minutes before nitrogen, over control group (100%). Here is the method: Nine to ten mice per group were each orally given […] of a test compound. After 60 minutes from the administration, each mouse was put in a 500 ml-volume transparent container having a vent hole; and nitrogen gas was introduced into the container at a rate of 5000 ml/min. The time from the start of nitrogen introduction to respiratory standstill was measured, and a rate of increase of the time over that of a control group (100%) was obtained.

Assay [2] concerns the target T1, Ca/Calmodulin-Dependent PDE (Bos taurus, UniProt P62157).
T1 construct: CaM from bovine brain; from tissue; host or cells: bovine brain
The experiment in a line: Calmodulin (CaM) inhibitory activity: inhibition of CaM-potentiated cyclic nucleotide phosphodiesterase (PDE). The format is biochemical. The note with it: CaM and PDE from bovine brain, [3H]-cGMP, 30° C., 10 minutes, pH 7.5; read-out: IC50 (concentration showing 50% inhibition of PDE activity potentiated by CaM).

With `COc1ccc(Cn2nc(CCN3CCN(c4cccc(Cl)c4C)CC3)c3cc(OC)c(OC)cc32)cc1OC` [Example 17, 3-(2-(4-(3-Chloro-2-methylphenyl)-1-piperazinyl)ethyl)-5,6-dimethoxy-1-(3,4-dimethoxybenzyl)-1H-indazole], the “Rate of Increase of Survival Time” value in assay [1] was determined as 19.2%. Besides, in assay [2], the IC50 came out at 3.1 µM.

With `COc1cc2c(CCN3CCN(c4cccc(Cl)c4C)CC3)nn(Cc3c[nH]cn3)c2cc1OC` [Example 23, 3-(2-(4-(3-Chloro-2-methylphenyl)-1-piperazinyl)ethyl)-5,6-dimethoxy-1-(4-imidazolylmethyl)-1H-indazole], in assay [2], the IC50 was found to be 5.5 µM. As to `COc1cc2[nH]nc(CCN3CCN(c4cccc(Cl)c4C)CC3)c2cc1OC` [Example 81], the IC50 in assay [2] came out at 9.4 µM.
